Reference: patent US20220401664A1, “FLUID DELIVERY DEVICES AND METHODS” (Droplette Inc., priority 2015, published 2022)
Read-outs that look alike come from different tables or passages of the source.

Tests used:
E. Coli DH5-α = assay: Bacterial inhibition by antibiotics passed through the device (OD 600 nm); type: cell-based; conditions: azithromycin 5 mg/mL, vancomycin 15 mg/mL, streptomycin 20 mg/mL, 6 hours, 37°, versus same antibiotics not passed through device
Experimental: Inhibition of bacterial strain E. Coli DH5-α with antibiotics dissolved in deionized water was tested by passing the antibiotics and water through the device. The three antibiotics tested were azithromycin (5 mg/mL), vancomycin (15 mg/mL), and streptomycin (20 mg/mL). As a positive control, the same antibiotics (not passed through the device) were tested. Additional controls included deionized water, and deionized water passed through the device. After addition of 100 μl of antibiotics or deionized water into 8 mL of LB broth, 100 μl of bacterial stock at 0.5 OD at 600 nm was added. The experiment was performed with 4 biological replicates and 3 technical replicates, providing a sample size of n=12. Samples were incubated at 37° centigrade and 200 RPM in a shaker for 6 hours and then optical density was measured at 600 nm in a spectrophotometer.

[1] = for Droplette Hydration, improvement over starting hydration: left hand
Experimental: In yet another experiment, 4 human subjects volunteered to have about 50 μL of sterile distilled water sprayed into their hand and have hydration levels measured with a Corneometer CM825 device. Skin was visually inspected for any discoloration at the time of study and after 24 hours, and subject comfort was assessed and self-reported. A pen was used to draw circles denoting a delivery site (having a circle diameter of about 1.5 cm) on the backs of the right and left hands. Hydration in the circled regions for both the right and left hands was assessed at the start with a Corneometer CM 825. A device having a configuration as disclosed in FIGS. 1-14 was used for about 30 seconds to deliver about 50 μL sterile water to the left hand of each subject. After about 5 seconds of rest, the hand was blotted dry with a tissue. About 100 μL of sterile water was topically applied to the back of the right hand of each subject in the circled region and spread to cover that area. After about 5 seconds of rest, that hand was blotted dry with a tissue.

[2] = for depth of dye penetration: delivered with the device held 1 cm away from skin; for dye penetration: standard aerosol (piezoelectric transducer only) held 1 cm away
Source text: A device having a configuration as disclosed in FIGS. 1-14 was used in a test along with a standard aerosol generated using only the piezoelectric transducer to compare dye penetration between the device and the aerosol. A mix of water and brilliant blue dye with a molecular weight of 792 Daltons was used to test penetration. Both the aerosol and the device were held 1 cm away from skin, and the solution was sprayed onto chicken and porcine skin-covered tissue. The skin and tissue were cut and dye penetration was measured. […] In between a range of 500 to 800 Daltons, there are a number of antibiotics, such as those used to treat skin and soft tissue infections. One example is ceftaroline, which is an antibiotic for Methicillin-resistant Staphylococcus aureus.

[H]/N=C(/N)N[C@H]1[C@H](O)[C@@H](O)[C@H](O[C@@H]2O[C@@H](C)[C@](O)(C=O)[C@H]2O[C@@H]2O[C@@H](CO)[C@H](O)[C@@H](O)[C@@H]2NC)[C@@H](N/C(N)=N\[H])[C@@H]1O [streptomycin]
bacterial inhibition after being passed through the device (E. Coli DH5-α): retained their native function

CC[C@H]1OC(=O)[C@H](C)[C@@H](O[C@H]2C[C@@](C)(OC)[C@@H](O)[C@H](C)O2)[C@H](C)[C@@H](O[C@@H]2O[C@H](C)C[C@H](N(C)C)[C@H]2O)[C@](C)(O)C[C@@H](C)CN(C)[C@H](C)[C@@H](O)[C@]1(C)O [azithromycin]
bacterial inhibition after being passed through the device (E. Coli DH5-α): retained their native function

O [water]
water delivered into skin, device compared to topical application ([1]; 4 subjects, young and mature skin): significantly more water was delivered
Droplette Hydration, improvement over starting hydration ([1]; Subject 3, 1 Hour: Resting, about 50 μL sterile water by device): 58% improvement over
Topical Hydration, improvement ([1]; Subject 3, 1 Hour: Resting, about 100 μL sterile water topically, right hand): 0% improvement (back
Droplette Hydration, improvement over starting hydration ([1]; Subject 3, 2 Hours: had eaten lunch and consumed 2 cups of water, device): 55% improvement over
Topical Hydration, improvement over baseline ([1]; Subject 3, 2 Hours: had eaten lunch and consumed 2 cups of water, topical, right hand): 11% improvement over

brilliant blue [brilliant blue dye]
depth of dye penetration ([2]; chicken tissue): 1.23 cm
depth of dye penetration ([2]; porcine tissue): 1 cm
dye penetration ([2]; chicken skin): did not penetrate either animal skin to any noticeable depth
dye penetration ([2]; porcine skin): did not penetrate either animal skin to any noticeable depth

CN[C@H](CC(C)C)C(=O)N[C@H]1C(=O)N[C@@H](CC(N)=O)C(=O)N[C@H]2C(=O)N[C@H]3C(=O)N[C@H](C(=O)N[C@H](C(=O)O)c4cc(O)cc(O)c4-c4cc3ccc4O)[C@H](O)c3ccc(c(Cl)c3)Oc3cc2cc(c3O[C@@H]2O[C@H](CO)[C@@H](O)[C@H](O)[C@H]2O[C@H]2C[C@](C)(N)[C@H](O)[C@H](C)O2)Oc2ccc(cc2Cl)[C@H]1O [vancomycin]
bacterial inhibition after being passed through the device (E. Coli DH5-α): retained their native function
